Laboratory results: article PMC11968819 (Scientific Reports, 2025)

Key:
[1] = human, four-donor-derived monolayer models (Supplementary Fig. 8a)
[2] = tested on: human duodenal organoid-derived monolayer model; test: FaSSIF tolerability assay with lucifer yellow; assay type: in vitro ADME; conditions: FaSSIF pH 6.5 apical, 2 h; within individual experiments and inter-experiments
P-gp = P-gp (Homo sapiens, UniProt P08183); test: Efflux drug transporter assay with digoxin; conditions: 10 μM digoxin, 10 μM inhibitor
[3] = tested on: UDP-glucuronosyltransferase (UGT); test: Raloxifene permeability and metabolizing assay; assay type: in vitro ADME, human; conditions: 5 μM raloxifene
[4] = tested on: human duodenal organoid-derived monolayer model
[5] = biological target: T1, Carboxylesterase 2 (CES2) (Homo sapiens, UniProt O00748); test: Irinotecan metabolizing assay; assay type: in vitro ADME; conditions: 10 μM irinotecan, 20 μM loperamide, 3 h
T1 sequence (O00748 27-559): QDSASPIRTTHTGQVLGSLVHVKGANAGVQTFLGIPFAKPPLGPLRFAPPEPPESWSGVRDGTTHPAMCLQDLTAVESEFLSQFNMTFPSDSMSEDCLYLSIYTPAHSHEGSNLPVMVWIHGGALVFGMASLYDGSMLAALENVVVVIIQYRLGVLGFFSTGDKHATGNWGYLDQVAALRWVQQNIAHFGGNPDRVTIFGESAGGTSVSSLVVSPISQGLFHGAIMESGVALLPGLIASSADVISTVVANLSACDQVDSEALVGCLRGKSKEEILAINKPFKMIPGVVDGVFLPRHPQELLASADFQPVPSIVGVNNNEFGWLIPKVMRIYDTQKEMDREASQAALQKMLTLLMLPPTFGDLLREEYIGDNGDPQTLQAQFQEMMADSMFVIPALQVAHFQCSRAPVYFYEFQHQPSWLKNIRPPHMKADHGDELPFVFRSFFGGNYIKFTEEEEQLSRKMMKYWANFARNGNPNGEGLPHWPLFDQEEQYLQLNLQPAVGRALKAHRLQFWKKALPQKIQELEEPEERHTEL

Sequence of P-gp (P08183 whole entry): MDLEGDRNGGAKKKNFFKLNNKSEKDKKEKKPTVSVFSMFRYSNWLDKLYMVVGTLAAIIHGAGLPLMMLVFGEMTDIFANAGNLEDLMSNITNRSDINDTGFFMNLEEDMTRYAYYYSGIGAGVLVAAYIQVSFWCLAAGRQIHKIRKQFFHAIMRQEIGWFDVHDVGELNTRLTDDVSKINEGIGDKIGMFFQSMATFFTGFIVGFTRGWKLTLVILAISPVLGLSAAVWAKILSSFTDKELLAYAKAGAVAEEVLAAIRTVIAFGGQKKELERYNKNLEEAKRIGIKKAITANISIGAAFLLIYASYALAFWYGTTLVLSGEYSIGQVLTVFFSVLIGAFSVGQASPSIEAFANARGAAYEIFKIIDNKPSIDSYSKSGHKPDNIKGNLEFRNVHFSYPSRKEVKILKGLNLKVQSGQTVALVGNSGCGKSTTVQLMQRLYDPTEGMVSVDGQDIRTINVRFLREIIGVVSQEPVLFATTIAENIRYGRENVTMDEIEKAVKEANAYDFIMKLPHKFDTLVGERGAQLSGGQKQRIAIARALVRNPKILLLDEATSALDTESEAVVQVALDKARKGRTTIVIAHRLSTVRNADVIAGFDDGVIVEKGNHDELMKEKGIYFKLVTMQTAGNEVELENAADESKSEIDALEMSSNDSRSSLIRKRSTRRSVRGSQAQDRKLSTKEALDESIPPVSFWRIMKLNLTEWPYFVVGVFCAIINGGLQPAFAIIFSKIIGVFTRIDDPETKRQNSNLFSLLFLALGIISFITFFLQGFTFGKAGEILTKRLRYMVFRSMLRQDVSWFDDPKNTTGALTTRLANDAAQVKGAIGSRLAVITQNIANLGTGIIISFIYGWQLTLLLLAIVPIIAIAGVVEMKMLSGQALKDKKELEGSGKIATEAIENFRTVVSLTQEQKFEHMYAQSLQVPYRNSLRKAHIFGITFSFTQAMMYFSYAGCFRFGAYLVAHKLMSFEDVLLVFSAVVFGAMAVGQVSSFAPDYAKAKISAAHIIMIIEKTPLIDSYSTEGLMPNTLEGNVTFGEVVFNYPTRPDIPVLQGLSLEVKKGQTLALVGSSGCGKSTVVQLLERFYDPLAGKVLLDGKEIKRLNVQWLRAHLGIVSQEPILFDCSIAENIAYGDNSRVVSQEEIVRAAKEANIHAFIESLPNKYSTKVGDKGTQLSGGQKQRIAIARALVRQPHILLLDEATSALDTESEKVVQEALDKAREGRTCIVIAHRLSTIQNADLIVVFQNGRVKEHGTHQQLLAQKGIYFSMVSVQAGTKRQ

Row | Compound | Papp at 10 μM [1] | further results
1 | CN(CCOc1ccc(CC2SC(=O)NC2=O)cc1)c1ccccn1 (stereo not drawn) [Rosiglitazone] | > 1 ×10⁻⁶ cm/s | –
2 | lucifer yellow | – | Papp of lucifer yellow [2]: below 1.0 × 10^–6 cm/s
3 | CCC1=C(C)CN(C(=O)NCCc2ccc(S(=O)(=O)NC(=O)N[C@H]3CC[C@H](C)CC3)cc2)C1=O [Glimepiride] | > 1 ×10⁻⁶ cm/s | –
4 | COCCc1ccc(OCC(O)CNC(C)C)cc1 (stereo not drawn) [Metoprolol] | > 1 ×10⁻⁶ cm/s | –
5 | O[C@@H](COc1cccc2ncccc12)CN1CCN([C@@H]2c3ccccc3[C@@H]3[C@H](c4ccccc42)C3(F)F)CC1 [zosquidar, zosuquidar] | – | Effect on transport of P-gp substrate digoxin (P-gp): canceled
6 | CC(C(=O)O)c1cccc(C(=O)c2ccccc2)c1 (stereo not drawn) [Ketoprofen] | > 1 ×10⁻⁶ cm/s | –
7 | O=C(c1ccc(OCCN2CCCCC2)cc1)c1c(-c2ccc(O)cc2)sc2cc(O)ccc12 [Raloxifene] | – | Metabolism by UGT [3]: mostly found to be metabolized to glucuronide
8 | Nn1nnc2ccccc21 [ABT, 1-aminobenzotriazole] | – | Effect on amount of midazolam metabolites [4]: significantly decreased; Effect on midazolam permeability [4]: significantly enhanced
9 | O=C(O)C[C@H](O)C[C@H](O)/C=C/c1c(C2CC2)nc2ccccc2c1-c1ccc(F)cc1 [Pitavastatin] | > 1 ×10⁻⁶ cm/s | –
10 | Cc1cc(=O)n(-c2ccccc2)n1C [Antipyrine] | > 1 ×10⁻⁶ cm/s | –
11 | NC(=O)N1c2ccccc2C=Cc2ccccc21 [Carbamazepine] | > 1 ×10⁻⁶ cm/s | –
12 | CC(C)NCC(O)COc1cccc2ccccc12 (stereo not drawn) [Propranolol] | > 1 ×10⁻⁶ cm/s | –
13 | Cc1onc(-c2ccccc2)c1C(=O)N[C@@H]1C(=O)N2[C@@H]1SC(C)(C)[C@@H]2C(=O)O [Oxacillin] | < 1 ×10⁻⁶ cm/s | –
14 | CN(C)C(=O)C(CCN1CCC(O)(c2ccc(Cl)cc2)CC1)(c1ccccc1)c1ccccc1 [loperamide] | – | Effect on generation of SN-38 from irinotecan [5]: significantly inhibited
